Measurements from patent publication US5413915A (priority 1991, dated 1995).

How the values were obtained:
microsomes = assay: Activity of microsome-containing layers after four day time lapse (Example 4); type: biochemical
Description: At least five spots were prepared on a glass plate according to the procedure in Example 2 above, and dried in air. The spots were translucent but generally colorless during the first day. […] On the third day, two of the remaining spots were "recharged" by a new layer containing fresh NADPH in gelatin. After drying, both spots were essentially colorless. […] Thus, the oxidative activity of microsomes dispersed in gelatin layers persists strongly for at least three days.

rat liver microsomes [1] = assay: Colorimetric reactions of constituents in bi-layer film (Example 1); type: biochemical
Description: In order to establish the color development behavior of various constituents employed in the invention alone and in several combinations, including two selected test chemicals, seven separate bi-layer film spots were prepared using an otherwise similar gelatin binder medium. The bottom layer of these spots contained reduced pararosaniline (PRA) in all instances except sample 7 wherein the oxidized PRA was substituted to illustrate the coloration of that constituent. An ascorbate salt was selected as typical of a benign test chemical, while benzo(a)pyrene was selected as a representative known carcinogen. The color behavior of the various samples was observed and identified in the following Table 3 together with the compositions of the samples tested.

[2] = in vivo; cited from earlier work
[3] = in vivo; cited from earlier work; remark: listed apart in the source
rat liver microsomes [4] = assay: Detection of benzo(a)pyrene on bilayer spot (Example 3); type: biochemical; details: 0.05 mL of 0.5 mg/mL solution on spot
Description: Two spots were prepared by manual streaking on a glass plate. The bottom layer of each spot consisted of 0.15 mL of a 4 mg/mL porcine 300 Bloom gelatin solution containing 1.2 mg/mL pararosaniline (PRA) reduced with solid sodium metabisulfite, spread over an area of 1100-1500 mm^2. After drying in air for two hours, the second layer, containing the following materials, was deposited. 0.05 mL of fresh rat liver microsomes containing approximately 62 mg/mL protein was added to 0.30 mL of a sodium phosphate buffer solution (pH=7.4) containing 4 mg/mL porcine 300 Bloom gelatin, and admixed with 0.02 mL of a solution containing 3 mM MgCl2, 50 mM tris(hydroxymethyl-)aminomethane buffer (pH=7.4) and 15 mM KCl. To this solution was added 10.5 mg solid reduced nicotinamide adenine dinucleotide phosphate (NADPH). 0.25 mL of this material was deposited over an area of 1300-1700 mm^2, completely covering the bottom layer, and was air dried for two hours. […] Within less than five minutes, violet color began to appear, and was well developed within twenty minutes.

rat liver microsomes [5] = type: biochemical; set-up: unit not given here
rat liver microsomes [6] = type: biochemical; set-up: key: Positive: the development of coloration denoted a positive response; Negative: the absence of such coloration denoted a negative response
Salmonella typhimurium = details: cited from earlier work
[7] = tested on: benzo(a)pyrene-induced rat liver microsomes; assay: Vapor exposure of detection elements in continuous flow chamber (Example 10); type: biochemical
Description: Detection elements of the present invention were prepared in the following manner. 13 mg PRA dissolved in 9.8 mL 0.1M TRISMOPS buffer (pH=7.4) and 3.2 mL ethanol, was bleached with 71 mg solid sodium sulfite. 0.05 mL Aliquots of the leuco-dye solution were plied to sheets of transparency film, and were air dried for one hour. […] After drying in air, the test spots were cut and mounted in 35 mm tissue culture dishes, then stored at -20° C. until ready for use. Detection elements were visually clear, with a slight flesh tone.
Vapor exposures of detection elements to the carcinogen chloromethyl methyl ether (CH3 --O--CH2 Cl) were carried out at ambient temperature,pressure, and humidity conditions in a continuous flow chamber. Air, metered at a flow rate of 1 L/min, was passed through a flask containing 2.0 mL of a rapidly stirred solution of CH3 --O--CH2 Cl in ethanol. After a glass wool plug to remove entrained liquid mists, the loaded air stream entered a 10 mm diameter tube into which the detection elements were mounted, without pre-moistening, parallel to the air flow. Flow conditions were calculated to be laminar (estimated Reynolds number=150) under these conditions. Exposure was conducted for ten minutes, after which the detection elements were removed and analyzed colorimetrically by taping to the sample beam exit slit of a double-beam spectrophotometer, and scanning the absorption spectrum versus an unexposed detection element affixed to the reference beam. At one exemplary test condition, in which the initial solution concentration of CH3 --O--CH2 Cl was 1.2M, 0.4 mL of the starting solution was recovered at the end of the exposure period. Based on both material balance and Raoult's law calculations, a single value of approximately 5200 ppm was determined for the airborne concentration of CH3 --O--CH2 Cl during the exposure. […] NADPH oxidation, equivalent to 0.4 mM or approximately 20% of the total NADPH, occurred during the 10-minute exposure, but ceased thereafter. By contrast, leuco-dye oxidation continued to intensify for some 2-4 hours, to a final level of about 0.5 mM in the detection element.
In similar experiments to FIG. 7, but in which the airborne concentration of CH3 --O--CH2 Cl was adjusted by lowering its solution concentration, color development is proportional to delivered dose, both by direct liquid administration and vapor exposure. […] For a 10-minute exposure, approximately 0.1% of the total CH3 --O--CH2 Cl in the air stream is absorbed and reacted by detection elements mounted parallel to the air flow.

rat liver microsomes [8] = assay: Color development in detection elements with different leuco dyes (Table 2); type: biochemical
rat liver microsomes [9] = assay: as above; type: biochemical; details: applied dose 10 μmol (formaldehyde 1 μmol); unexposed control also Black
Description: Solutions containing 0.5 mM of the respective dyes in 0.1 M TRIS buffer, pH=7.4 (except for nitro blue tetrazolium, 5.0 mM in 50% ethanolic TRIS, pH=7.4) were bleached with a few crystals of sodium sulfite or sodium dithionite, then plied in 0.02 mL aliquots as test spots on a clear sheet of transparency film. Spontaneous color development in air was noted (Table 2). Subsequently, a suspension of rat liver microsomes containing 1 mM NADPH and 1 mg/mL gelatin in 0.1 M TRIS-MOPS buffer (pH=7.7) was plied in 0.05 mL aliquots over the dried leuco-dye test spots. After drying, color development condition was noted, and the test spots saved for exposure tests to chemical substances (Table 2). Exposures were carried out by layering 0.01 mL of 0.1-1.0 M solutions of test chemical substances onto the test spots, and changes in color noted over time.

[10] = cited from earlier work
microsomal protein = assay: In vitro microsomal activation of hydrazine: leuco dye oxidation (Example 9); type: biochemical; details: 0.5 mM hydrazine hydrate
Description: Test of leuco pararosaniline color formation and NADPH redox states, as a function of time after hydrazine addition, was conducted in vitro, and UV-visible absorbance changes monitored. All systems were aerobic (at least 0.2 mM O2). 0.03 mM Pararosaniline was reduced by addition of 0.1 mM sodium sulfite in 0.1 M 10 tris(hydroxymethyl-)aminomethane buffer (pH=7.5), and 0.3 mM NADPH with approximately 0.5 mg/mL microsomal protein (curves indicated with "+m"). At time=0, hydrazine hydrate (pH=7.5) was added to a final concentration of 0.5 mM. […] Approximately 60% of the leuco dye was oxidized (0.02 mM) during the reaction, and roughly twice that amount of […].

[11] = Oxidation-reduction potentials and redox mediation of dyes and reagents; type: physicochemical
Excerpt: Diphenylmethane and triphenylmethane dyes of the present invention have midpoint oxidation-reduction ("redox") potentials ("Em7 ") apparently more negative than the Em7 value for NADPH or cytochrome P450 isozymes. […] Specific examples include pararosaniline (E1/2 =-0.75 V) and malachite green (E1/2 =-0.55 V) (W. Kemula and A. Axt (1969) op cit; Also H. O. Willard, L. L. Merritt, and J. A. Dean (1965) Instrumental Methods of Analysis, 4th Ed., pp. 682-685 and 760-763, for a comparison of E1/2 versus Em7. These potentials are too negative for direct measurement in water, as Em7 =-0.42 V for water breakdown to hydrogen.), both of which respond with color development upon microsomal metabolic activation.
Methylene blue is a rapidly mediating redox indicator, and as such is conventionally used for standardization of electrodes and electrochemical systems used in redox potentiometry. Systems containing ascorbate were therefore tightly clamped at a redox potential of +10 to +20 mV, regardless of any interfering influences such as oxygen. […] Spectrum "mb" is that of pure methylene blue in its oxidized state. Curve "oxid" is the spectrum of a mixed solution of methylene blue as in curve "mb" plus the fully oxidized pararosaniline. […]

[12] = no microsomes, no NADPH, bottom PRA-reduced (samples 5, 6)
[13] = 10-minute vapor exposure, approximately 5200 ppm

## c1ccc2c(c1)cc1ccc3cccc4ccc2c1c34 [Benzo(a)pyrene]
microsomes; fourth day, NADPH-recharged spot
  Color developed on spot: strong violet color
microsomes; fourth day, not recharged
  Color developed on spot: strong violet color
microsomes; second day, not recharged
  Color developed on spot: strong violet color
microsomes; third day, recharged with fresh NADPH
  Color developed on spot: deep purple color
Rat liver microsomes [1]; [12]
  COLOR REACTION: No
Rat liver microsomes [1]; top layer with rat liver microsomes and NADPH, bottom PRA-reduced (sample 4)
  COLOR REACTION: Yes
[2]
  Carcinogenic Status: Positive
  Tumorigen Activity: +
[3]
  Teratogen Activity: +
Rat liver microsomes [4]
  Time until violet color began to appear: less than five
  Time until violet color well developed: twenty
Rat liver microsomes [5]
  Detector Response, threshold dose: 0.01
Rat liver microsomes [6]
  Invention Response: Positive

## COCCl [Chloromethyl methyl ether]
[2]
  Tumorigen Activity: +
[3]
  Teratogen Activity: +
Salmonella typhimurium
  Mutagenicity: +
Rat liver microsomes [5]
  Detector Response, threshold dose: 0.1
[7]; [13]
  NADPH oxidation in detection element: 0.4 mM
  NADPH oxidation, share of the total NADPH: approximately 20%
[7]; after 10-minute exposure
  Time over which leuco-dye oxidation continued to intensify: 2 to 4 h
[7]; after 10-minute exposure, approximately 5200 ppm
  Leuco-dye oxidation, final level in the detection element: about 0.5 mM

## NN [Hydrazine]
[2]
  Tumorigen Activity: +
[3]
  Teratogen Activity: +
Rat liver microsomes [8]; exposure to hydrazine
  Color of detection elements with leuco methylene blue in combination with pararosaniline: magenta color
Rat liver microsomes [8]; exposure to hydrazine solutions, separate tests
  Color of detection elements using leuco malachite green: visually detectable green color
Rat liver microsomes [9]
  New Color Development, NBTZ: Black
Cytochrome P450IA1
  Gain of sensitivity, 50%:50% BaP-induced and uninduced microsomes versus uninduced: approximately 10 fold
  Loss of sensitivity, BNF-induced versus uninduced microsomes: 20-50 fold
Salmonella typhimurium
  Mutagenicity: +
Rat liver microsomes [5]
  Detector Response, threshold dose: 0.1-20
[10]; midpoint redox potential
  Em7: -0.73 V
Microsomal protein
  Leuco dye oxidized during the reaction: 0.02 mM
  Time to asymptote of leuco-dye oxidation and NADPH reduction: 2.0 to 2.5 h
Microsomal protein; 0.03 mM PRA, 0.3 mM NADPH, microsomes
  Leuco dye oxidized during the reaction: Approximately 60%

## O=C1O[C@H]([C@@H](O)CO)C(O)=C1O [free ascorbic acid, ascorbic acid]
Rat liver microsomes [1]; [12]
  COLOR REACTION: color reaction occurs

## N=C1C=CC(=C(c2ccc(N)cc2)c2ccc(N)cc2)C=C1 [pararosaniline]
[11]; aqueous media, from FIG. 1 data
  standard oxidation-reduction potential (Em7): < -0.1 V
[11]; ascorbate / methylene blue clamped system
  Time to equilibrate in a redox voltage-clamped system: two
[10]; literature (Kemula and Axt)
  E1/2: -0.75 V
